Several values for one entry are separate records, joined by “and”; a condition that tells them apart may be missing. Identical values can stand only once.
Assays:
Test in all cases: radiometric filter-binding kinase assay, Kinase HotSpot
Conditions in all cases: compound 0.5 µM; ATP 10 µM
[1] = target: TTK (human) (UniProt P33981)
[2] = target: PRKCE (human) (UniProt Q02156)
[3] = target: MAPK14 (human) (UniProt Q16539)
[4] = target: AKT1 (human) (UniProt P31749)
[5] = target: JAK1 JH1 catalytic (human) (UniProt P23458)
[6] = target: CDK5 CDK5R1 p25 (human) (UniProt Q00535+Q15078)
[7] = target: FGFR2 (human) (UniProt P21802)
[8] = target: WNK2 (human) (UniProt Q9Y3S1)
[9] = target: HCK (human) (UniProt P08631)
[10] = target: ABL1 (human) (UniProt P00519)
[11] = target: DMPK (human) (UniProt Q09013)
[12] = target: PAK2 (human) (UniProt Q13177)
[13] = target: PRKG1 (human) (UniProt Q13976)
[14] = target: SLK (human) (UniProt Q9H2G2)
[15] = target: SGK2 (human) (UniProt Q9HBY8)
[16] = target: EPHB3 (human) (UniProt P54753)
[17] = target: KDR (human) (UniProt P35968)
[18] = target: STK16 (human) (UniProt O75716)
[19] = target: NUAK1 (human) (UniProt O60285)
[20] = target: NEK7 (human) (UniProt Q8TDX7)
[21] = target: PASK (human) (UniProt Q96RG2)
[22] = target: DYRK1A (human) (UniProt Q13627)
[23] = target: STK39 (human) (UniProt Q9UEW8)
[24] = target: EPHB1 (human) (UniProt P54762)
[25] = target: FGFR3 (human) (UniProt P22607)
[26] = target: CDK3 CCNE1 (human) (UniProt Q00526+P24864)
[27] = target: CAMKK2 (human) (UniProt Q96RR4)
[28] = target: BRSK2 (human) (UniProt Q8IWQ3)
[29] = target: CAMK1G (human) (UniProt Q96NX5)
[30] = target: ALK (human) (UniProt Q9UM73)
[31] = target: MAPK12 (human) (UniProt P53778)
[32] = target: MAP3K11 (human) (UniProt Q16584)
[33] = target: RAF1 (human) (UniProt P04049)
[34] = target: PHKG2 (human) (UniProt P15735)
[35] = target: MARK2 (human) (UniProt Q7KZI7)
[36] = target: WEE1 (human) (UniProt P30291)
[37] = target: SRPK3 (human) (UniProt Q9UPE1)
[38] = target: AURKA (human) (UniProt O14965)
[39] = target: GRK6 (human) (UniProt P43250)
[40] = target: CDC42BPA (human) (UniProt Q5VT25)
[41] = target: NTRK1 (human) (UniProt P04629)
[42] = target: FLT1 (human) (UniProt P17948)

WEE1 (human), sequence (P30291 whole entry, looked up): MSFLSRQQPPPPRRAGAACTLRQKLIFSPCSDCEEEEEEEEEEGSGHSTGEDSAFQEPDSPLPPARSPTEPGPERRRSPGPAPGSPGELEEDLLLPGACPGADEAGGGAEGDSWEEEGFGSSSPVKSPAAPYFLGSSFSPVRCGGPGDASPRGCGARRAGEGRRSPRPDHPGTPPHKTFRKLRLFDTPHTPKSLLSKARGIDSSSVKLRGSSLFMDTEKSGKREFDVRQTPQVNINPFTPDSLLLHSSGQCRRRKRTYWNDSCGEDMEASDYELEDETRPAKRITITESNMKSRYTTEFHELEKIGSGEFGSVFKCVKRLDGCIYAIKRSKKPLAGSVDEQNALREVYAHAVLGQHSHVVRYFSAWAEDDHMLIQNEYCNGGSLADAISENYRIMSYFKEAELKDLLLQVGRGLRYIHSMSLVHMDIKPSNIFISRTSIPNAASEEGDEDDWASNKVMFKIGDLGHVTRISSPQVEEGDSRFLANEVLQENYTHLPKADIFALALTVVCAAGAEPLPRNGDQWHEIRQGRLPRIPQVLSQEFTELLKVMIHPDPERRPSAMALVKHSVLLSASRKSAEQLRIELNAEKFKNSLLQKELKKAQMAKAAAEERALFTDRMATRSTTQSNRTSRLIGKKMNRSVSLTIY
HCK (human), sequence (P08631 whole entry, looked up): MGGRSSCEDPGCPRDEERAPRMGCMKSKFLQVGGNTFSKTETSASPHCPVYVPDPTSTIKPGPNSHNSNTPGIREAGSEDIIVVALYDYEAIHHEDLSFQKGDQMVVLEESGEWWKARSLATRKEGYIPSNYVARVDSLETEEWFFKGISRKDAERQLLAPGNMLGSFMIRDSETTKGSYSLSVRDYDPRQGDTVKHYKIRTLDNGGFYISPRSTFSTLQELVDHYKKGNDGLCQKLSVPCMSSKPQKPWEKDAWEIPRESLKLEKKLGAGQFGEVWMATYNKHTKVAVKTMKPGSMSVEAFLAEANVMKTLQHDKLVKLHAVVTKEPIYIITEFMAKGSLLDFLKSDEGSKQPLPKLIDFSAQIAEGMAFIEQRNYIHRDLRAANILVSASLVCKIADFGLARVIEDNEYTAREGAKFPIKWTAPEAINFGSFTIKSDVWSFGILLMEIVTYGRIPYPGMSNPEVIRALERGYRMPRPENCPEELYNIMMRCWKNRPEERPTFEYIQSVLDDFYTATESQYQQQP
SRPK3 (human), sequence (Q9UPE1 whole entry, looked up): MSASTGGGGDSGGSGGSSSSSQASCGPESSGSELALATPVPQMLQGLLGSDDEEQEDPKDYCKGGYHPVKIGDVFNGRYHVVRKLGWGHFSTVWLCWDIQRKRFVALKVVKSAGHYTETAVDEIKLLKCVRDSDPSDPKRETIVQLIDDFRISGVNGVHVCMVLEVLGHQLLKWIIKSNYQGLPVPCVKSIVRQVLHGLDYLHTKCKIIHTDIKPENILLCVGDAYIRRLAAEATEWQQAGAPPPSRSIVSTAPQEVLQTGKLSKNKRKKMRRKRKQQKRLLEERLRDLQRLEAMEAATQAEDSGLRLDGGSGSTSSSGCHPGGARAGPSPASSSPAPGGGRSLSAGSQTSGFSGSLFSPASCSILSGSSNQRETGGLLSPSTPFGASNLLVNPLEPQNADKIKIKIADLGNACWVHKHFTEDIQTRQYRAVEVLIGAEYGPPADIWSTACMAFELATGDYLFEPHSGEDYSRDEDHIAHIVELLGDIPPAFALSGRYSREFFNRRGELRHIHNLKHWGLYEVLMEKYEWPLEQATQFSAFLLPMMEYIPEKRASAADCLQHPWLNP
PAK2 (human), sequence (Q13177 whole entry, looked up): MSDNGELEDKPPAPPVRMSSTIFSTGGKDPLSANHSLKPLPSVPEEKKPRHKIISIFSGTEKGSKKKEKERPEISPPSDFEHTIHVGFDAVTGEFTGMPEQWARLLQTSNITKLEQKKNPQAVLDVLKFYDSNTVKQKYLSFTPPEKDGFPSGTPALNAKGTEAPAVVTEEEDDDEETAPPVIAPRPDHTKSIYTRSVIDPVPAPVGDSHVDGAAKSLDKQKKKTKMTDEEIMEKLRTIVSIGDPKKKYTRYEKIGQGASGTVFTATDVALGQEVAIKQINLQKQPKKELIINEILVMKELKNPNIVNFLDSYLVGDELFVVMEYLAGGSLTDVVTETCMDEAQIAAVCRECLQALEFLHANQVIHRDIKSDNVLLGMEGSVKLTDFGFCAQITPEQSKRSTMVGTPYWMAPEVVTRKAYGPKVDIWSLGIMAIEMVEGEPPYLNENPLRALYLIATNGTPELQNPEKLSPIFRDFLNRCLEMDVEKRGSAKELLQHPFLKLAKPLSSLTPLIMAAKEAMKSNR
FGFR3 (human), sequence (P22607 whole entry, looked up): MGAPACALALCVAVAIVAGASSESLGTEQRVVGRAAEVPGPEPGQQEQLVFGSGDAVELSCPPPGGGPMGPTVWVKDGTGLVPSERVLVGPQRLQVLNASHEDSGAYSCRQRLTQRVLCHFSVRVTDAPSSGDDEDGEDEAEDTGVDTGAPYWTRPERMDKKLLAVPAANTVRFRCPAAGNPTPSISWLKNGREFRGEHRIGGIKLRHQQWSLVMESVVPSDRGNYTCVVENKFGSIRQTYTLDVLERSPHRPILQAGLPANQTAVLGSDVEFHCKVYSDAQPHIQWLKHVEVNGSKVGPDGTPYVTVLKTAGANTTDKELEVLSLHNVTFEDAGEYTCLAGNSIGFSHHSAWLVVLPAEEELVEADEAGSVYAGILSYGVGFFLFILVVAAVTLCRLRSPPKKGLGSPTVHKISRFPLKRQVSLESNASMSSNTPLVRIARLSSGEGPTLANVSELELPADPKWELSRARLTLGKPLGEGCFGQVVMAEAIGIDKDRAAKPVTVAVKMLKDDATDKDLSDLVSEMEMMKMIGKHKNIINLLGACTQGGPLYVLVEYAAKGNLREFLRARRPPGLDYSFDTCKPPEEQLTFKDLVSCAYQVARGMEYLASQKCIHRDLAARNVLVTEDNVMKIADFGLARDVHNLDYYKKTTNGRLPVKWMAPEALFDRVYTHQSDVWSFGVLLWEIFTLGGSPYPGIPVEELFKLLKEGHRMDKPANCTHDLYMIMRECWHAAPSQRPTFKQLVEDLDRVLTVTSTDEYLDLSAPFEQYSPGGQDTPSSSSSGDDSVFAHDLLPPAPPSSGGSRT
AKT1 (human), sequence (P31749 whole entry, looked up): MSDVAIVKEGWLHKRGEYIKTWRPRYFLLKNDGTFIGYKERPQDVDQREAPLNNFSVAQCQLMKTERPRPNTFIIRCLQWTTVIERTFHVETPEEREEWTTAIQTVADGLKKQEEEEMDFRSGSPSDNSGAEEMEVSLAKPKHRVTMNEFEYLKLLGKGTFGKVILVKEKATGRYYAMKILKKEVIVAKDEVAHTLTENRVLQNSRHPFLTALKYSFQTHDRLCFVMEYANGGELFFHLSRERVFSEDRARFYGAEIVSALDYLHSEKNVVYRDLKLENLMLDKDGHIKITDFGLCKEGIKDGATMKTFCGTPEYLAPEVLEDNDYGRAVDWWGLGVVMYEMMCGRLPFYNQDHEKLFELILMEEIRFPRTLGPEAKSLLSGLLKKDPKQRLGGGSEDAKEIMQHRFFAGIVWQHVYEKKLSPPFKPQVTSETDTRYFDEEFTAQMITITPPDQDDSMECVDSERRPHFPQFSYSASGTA
DMPK (human), sequence (Q09013 whole entry, looked up): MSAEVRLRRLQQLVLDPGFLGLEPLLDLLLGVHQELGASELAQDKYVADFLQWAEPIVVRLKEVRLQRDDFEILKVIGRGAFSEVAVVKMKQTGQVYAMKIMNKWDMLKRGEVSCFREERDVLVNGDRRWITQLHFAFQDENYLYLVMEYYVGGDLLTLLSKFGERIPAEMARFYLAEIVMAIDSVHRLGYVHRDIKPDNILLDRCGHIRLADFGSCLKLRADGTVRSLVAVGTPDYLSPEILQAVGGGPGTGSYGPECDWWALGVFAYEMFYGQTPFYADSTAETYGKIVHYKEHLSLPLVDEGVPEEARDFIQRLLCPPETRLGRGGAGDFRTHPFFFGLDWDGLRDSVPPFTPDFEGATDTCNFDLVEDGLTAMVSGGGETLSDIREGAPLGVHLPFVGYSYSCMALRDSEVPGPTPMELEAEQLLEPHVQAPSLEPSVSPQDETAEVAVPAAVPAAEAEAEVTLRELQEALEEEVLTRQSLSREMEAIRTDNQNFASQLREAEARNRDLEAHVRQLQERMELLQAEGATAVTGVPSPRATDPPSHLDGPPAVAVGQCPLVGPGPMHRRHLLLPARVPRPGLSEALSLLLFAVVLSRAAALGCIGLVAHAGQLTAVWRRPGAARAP
PRKCE (human), sequence (Q02156 whole entry, looked up): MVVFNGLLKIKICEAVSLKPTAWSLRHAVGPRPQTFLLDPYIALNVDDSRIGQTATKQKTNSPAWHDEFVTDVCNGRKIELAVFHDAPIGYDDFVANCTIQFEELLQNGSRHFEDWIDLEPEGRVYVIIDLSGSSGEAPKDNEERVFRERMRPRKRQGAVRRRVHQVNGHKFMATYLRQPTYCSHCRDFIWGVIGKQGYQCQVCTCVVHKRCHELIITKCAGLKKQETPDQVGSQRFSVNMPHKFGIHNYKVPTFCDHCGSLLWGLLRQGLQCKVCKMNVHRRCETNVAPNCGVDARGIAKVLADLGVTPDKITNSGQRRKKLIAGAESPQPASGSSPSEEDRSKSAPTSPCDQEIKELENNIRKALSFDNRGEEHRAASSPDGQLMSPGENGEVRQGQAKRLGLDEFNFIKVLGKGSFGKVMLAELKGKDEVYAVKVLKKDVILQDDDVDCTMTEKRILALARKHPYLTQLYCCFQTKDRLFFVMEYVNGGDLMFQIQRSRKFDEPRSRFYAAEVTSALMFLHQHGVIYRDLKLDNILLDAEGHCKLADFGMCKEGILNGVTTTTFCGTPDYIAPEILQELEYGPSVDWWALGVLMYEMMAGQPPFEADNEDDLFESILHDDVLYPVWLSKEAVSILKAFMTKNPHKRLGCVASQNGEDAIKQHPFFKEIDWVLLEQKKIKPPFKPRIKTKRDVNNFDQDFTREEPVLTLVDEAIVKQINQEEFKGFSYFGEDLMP

Work on O=c1cc(N2CCOCC2)oc2c(-c3ccccc3)cccc12 yielded a residual activity [1] of 103%, a residual activity [2] of 102% and a residual activity [3] of 87.7%. The residual activity [4] was 95.7%, the residual activity [5] was 108% and the residual activity [6] was 86.7%. It also gave a residual activity [7] of 95.8%, a residual activity [8] of 110% and a residual activity [9] of 98.3%. The residual activity [10] was 99.2%, the residual activity [11] was 99.4% and the residual activity [12] was 103%. For the same compound, the residual activity [13] was 104% and 105%, the residual activity [14] was 102% and the residual activity [15] was 97%. For the same compound, the residual activity [16] was 94.6%, the residual activity [17] was 87.2% and the residual activity [18] was 97.5%. It also gave a residual activity [19] of 92.5%, a residual activity [20] of 92.1% and a residual activity [21] of 90.2%. For the same compound, the residual activity [22] was 97.3%, the residual activity [23] was 78.4% and the residual activity [24] was 95.9%. It also gave a residual activity [25] of 95.9%, a residual activity [26] of 89.6% and a residual activity [27] of 83.3%. It also gave a residual activity [28] of 96.2%, a residual activity [29] of 93.8% and a residual activity [30] of 92.4%. For the same compound, the residual activity [31] was 104%, the residual activity [32] was 101% and the residual activity [33] was 82.3%. The residual activity [34] was 97.2%, the residual activity [35] was 79.2% and the residual activity [36] was 76.4%. It also gave a residual activity [37] of 95.5%, a residual activity [38] of 99% and a residual activity [39] of 93%. It also gave a residual activity [40] of 104% and a residual activity [41] of 95%.
CCCCc1c(-c2ccc(O)cc2)[nH]c2nccnc12 showed a residual activity [1] of 91.6%, a residual activity [2] of 107% and a residual activity [3] of 102%. The residual activity [5] was 53.8%, the residual activity [7] was 94.5% and the residual activity [8] was 117%. It also gave a residual activity [42] of 86.3%, a residual activity [9] of 91.1% and a residual activity [10] of 79%. For the same compound, the residual activity [11] was 91.8%, the residual activity [12] was 84.5% and the residual activity [13] was 88.8% and 94.5%. For the same compound, the residual activity [14] was 77.3%, the residual activity [15] was 99.4% and the residual activity [17] was 89.8%. The residual activity [18] was 55.4%, the residual activity [19] was 19.1% and the residual activity [20] was 111%. For the same compound, the residual activity [21] was 99.5%, the residual activity [22] was 92.9% and the residual activity [23] was 76.1%. It also gave a residual activity [24] of 78%, a residual activity [25] of 80% and a residual activity [26] of 76.8%. For the same compound, the residual activity [27] was 91.7%, the residual activity [28] was 87.2% and the residual activity [29] was 104%. It also gave a residual activity [30] of 85%, a residual activity [32] of 32.5% and a residual activity [33] of 106%. The residual activity [34] was 100%, the residual activity [35] was 76.1% and the residual activity [36] was 94.6%. The residual activity [37] was 98.6%, the residual activity [38] was 24.5% and the residual activity [39] was 83.5%. It also gave a residual activity [40] of 99.3% and a residual activity [41] of 99.6%.
For N/C(=N\N=C/c1ccc(-c2cccc([N+](=O)[O-])c2)o1)N[N+](=O)[O-], the residual activity [1] was 95.9%, the residual activity [2] was 90.5% and the residual activity [3] was 90.2%. The residual activity [4] was 99.7%, the residual activity [5] was 102% and the residual activity [6] was 96.5%. The residual activity [7] was 104%, the residual activity [8] was 106% and the residual activity [42] was 97.6%. The residual activity [9] was 114%, the residual activity [10] was 101% and the residual activity [11] was 102%. For the same compound, the residual activity [12] was 103%, the residual activity [13] was 87.4% and 95.8% and the residual activity [14] was 101%. For the same compound, the residual activity [15] was 101%, the residual activity [16] was 91.7% and the residual activity [17] was 96.7%. The residual activity [18] was 105%, the residual activity [19] was 96.4% and the residual activity [20] was 102%. It also gave a residual activity [21] of 88.4%, a residual activity [22] of 95.8% and a residual activity [23] of 91.8%. It also gave a residual activity [24] of 107%, a residual activity [25] of 99.6% and a residual activity [26] of 85%. The residual activity [27] was 114%, the residual activity [28] was 106% and the residual activity [29] was 104%. It also gave a residual activity [30] of 93.6%, a residual activity [31] of 93.4% and a residual activity [32] of 99.4%. The residual activity [33] was 98.1%, the residual activity [34] was 100% and the residual activity [35] was 108%. The residual activity [36] was 100%, the residual activity [37] was 100% and the residual activity [39] was 98.3%. It also gave a residual activity [40] of 87.3% and a residual activity [41] of 96%.
O=S(=O)(NCCNC/C=C/c1ccc(Br)cc1)c1cccc2cnccc12 gave a residual activity [1] of 99.7%, a residual activity [2] of 86.4% and a residual activity [3] of 105%. The residual activity [4] was 41.6%, the residual activity [5] was 87.3% and the residual activity [6] was 113%. For the same compound, the residual activity [7] was 95.1%, the residual activity [8] was 99.4% and the residual activity [42] was 90.8%. For the same compound, the residual activity [9] was 99.4%, the residual activity [10] was 101% and the residual activity [11] was 96.6%. The residual activity [12] was 78.6%, the residual activity [13] was 26.3% and 41.1% and the residual activity [14] was 93%. It also gave a residual activity [15] of 84.2%, a residual activity [16] of 92.5% and a residual activity [17] of 79.1%. For the same compound, the residual activity [18] was 94.4%, the residual activity [19] was 32.8% and the residual activity [20] was 96.9%. The residual activity [21] was 94.5%, the residual activity [22] was 98.5% and the residual activity [23] was 103%. It also gave a residual activity [24] of 106%, a residual activity [25] of 91.3% and a residual activity [26] of 77.3%. It also gave a residual activity [27] of 95.6%, a residual activity [28] of 92.4% and a residual activity [29] of 99.1%. The residual activity [30] was 101%, the residual activity [32] was 95.6% and the residual activity [33] was 96.4%. For the same compound, the residual activity [34] was 88.8%, the residual activity [35] was 89.3% and the residual activity [36] was 84.6%. For the same compound, the residual activity [37] was 98%, the residual activity [38] was 104% and the residual activity [39] was 93.5%. It also gave a residual activity [40] of 97.5% and a residual activity [41] of 84.9%.
CCc1nc(-c2ccc(OC)cc2)[nH]c1-c1ccncc1 gave a residual activity [1] of 105%, a residual activity [2] of 101% and a residual activity [3] of 113%. It also gave a residual activity [5] of 110%, a residual activity [6] of 95.9% and a residual activity [7] of 104%. For the same compound, the residual activity [8] was 104%, the residual activity [42] was 90.2% and the residual activity [9] was 95.1%. The residual activity [10] was 101%, the residual activity [11] was 102% and the residual activity [12] was 90.7%. For the same compound, the residual activity [13] was 81% and 91.2%, the residual activity [14] was 99.7% and the residual activity [15] was 103%. The residual activity [16] was 107%, the residual activity [17] was 103% and the residual activity [18] was 108%. For the same compound, the residual activity [19] was 92.8%, the residual activity [20] was 99.8% and the residual activity [21] was 96.3%. For the same compound, the residual activity [22] was 97.7%, the residual activity [23] was 94.2% and the residual activity [24] was 104%. The residual activity [25] was 99.8%, the residual activity [26] was 97.9% and the residual activity [27] was 109%. For the same compound, the residual activity [28] was 105%, the residual activity [29] was 98% and the residual activity [30] was 106%. The residual activity [31] was 104%, the residual activity [32] was 96.7% and the residual activity [33] was 93.4%. The residual activity [34] was 111%, the residual activity [35] was 99.4% and the residual activity [36] was 89.1%. It also gave a residual activity [37] of 102%, a residual activity [38] of 93.7% and a residual activity [40] of 96.3%. It also gave a residual activity [41] of 106%.

Reference: the kinase profiling compilation of Christmann-Franck et al. (2016)
